Patent US20230256007A1 (priority 2022, published 2023)

Tested on: patient with sequelae of coronavirus pneumonia (omicron variant of coronavirus)
Conditions: human, in vivo

SMILES: [HH] [hydrogen gas, hydrogen]
- Daily headache and migraine that occurred several times a day: relieved
- Generalized pain, difficulty breathing, feeling of faintness, malaise, fatigue after exertion, sleeping disorder, low-grade fever, bradycardia, blood pressure drop: continues to alleviate symptoms
- State of pulmonary fibrosis: improving
- Time after which sleeping disorder improved: about 3 days
